Results from patent US20060189641A1, “Novel 6-phenlyphenanthridines” (priority 2003, published 2006).

tested on: PDE4; experiment: Inhibition of the PDE4 activity (cytosol from human neutrophils, [3H]cAMP hydrolysis); format: biochemical; design: unit not given here; details: 0.5 μM cAMP, Motapizone 1 μM to suppress PDE3
Procedure: Method for Measuring Inhibition of PDE4 Activity
PDE4 activity was determined as described by Thompson et al. (Adv Cycl Nucl Res 10:69-92, 1979) with some modifications (Bauer and Schwabe, Naunyn-Schmiedeberg's Arch Pharmacol 311:193-198, 1980). At a final assay volume of 200 μl (96well microtiter plates) the assay mixture contained 20 mM Tris (pH 7.4), 5 mM MgCl2, 0.5 μM cAMP, [^3H]cAMP (about 30,000 cpm/assay), the test compound and an aliquot of cytosol from human neutrophilis which mainly contains PDE4 activity as described by Schudt et al. (Naunyn-Schmledeberg's Arch Pharmacol 344:682-690, 1991); the PDE3-specific inhibitor Motapizone (1 μM) was included to suppress PDE3 activity originating from contaminating platelets. Serial dilutions of the compounds were prepared in DMSO and further diluted 1:100 (v/v) in the assays to obtain the desired final concentrations of the inhibitors at a DMSO concentration of 1% (v/v) which by itself only slightly affected PDE4 activity.
After preincubation for 5 min at 37° C., the reaction was started by the addition of substrate (cAMP) and the assays were incubated for further 15 min at 37° C. 50 μl of 0.2 N HCl was added to stop the reaction and the assays were left on ice for about 10 min. Following incubation with 25 μg 5′-nucleotidase (Crotalus atrox snake venom) for 10 min at 37° C., the assays were loaded on QAE Sephadex A-25 (1 ml bed volume). The columns were eluted with 2 ml of 30 mM ammonium formulate (pH 6.0) and the […] for radioactivity. Results were corrected for blank values (measured in the presence of denatured protein) which were below 5% of total radioactivity. […] The IC50 -values for the compounds according to the invention for the inhibition of the PDE4 activity were determined from the concentration-inhibition curves by nonlinear-regression.

| SMILES | −log IC50, Inhibition of the PDE4 activity |
| --- | --- |
| COc1cc2c(cc1OC)[C@H]1CCCC[C@H]1N=C2c1ccc(C(C)=NO)cc1 [Compound 1, 1-[4-((4aR,10bR)-8,9-Dimethoxy-1,2,3,4,4a,10b-hexahydrophenanthridin-6-yl}-phenyl]-ethanone oxime] | 9.43 |
| COc1cc2c(cc1OC)C1CCCCC1N=C2c1ccc(C(=NO)c2ccccc2)cc1 [Compound 2, 1-[4-((4aR,10bR)-8,9-Dimethoxy-1,2,3,4a,10b-hexahydrophenanthridin-6-yl}phenyl]-1-phenyl-methanone oxime] | 9.04 |
| COc1cc2c(cc1OC)[C@H]1CCCC[C@H]1N=C2c1ccc(C(C)=NOCc2ccccc2)cc1 [Compound 4, 1-[4-((4aR,10bR)-8,9-Dimethoxy-1,2,3,4,4a,10b-hexahydrophenanthridin-6-yl}-phenyl]-ethanone O-benzyloxime] | 8.20 |
| COc1cc2c(cc1OC)[C@H]1CCCC[C@H]1N=C2c1ccc(C(C)=NOCc2ccc([N+](=O)[O-])cc2)cc1 [Compound 5, 1-[4-((4aR,10bR)-8,9-Dimethoxy-1,2,3,4,4a,10b-hexahydrophenanthridin-6-yl}-phenyl]-ethanone O-(4-nitrobenzyl)-oxime] | 8.41 |
| CCON=C(C)c1ccc(C2=N[C@@H]3CCCC[C@@H]3c3cc(OC)c(OC)cc32)cc1 [Compound 6, 1-[4-((4aR,10bR)-8,9-Dimethoxy-1,2,3,4,4a,10b-hexahydrophenanthridin-6-yl}-phenyl]ethanone O-ethyloxime] | 8.08 |
| COc1cc2c(cc1OC)C1CCCCC1N=C2c1ccc(C(C)=NOc2ccccc2)cc1 [Compound 7, 1-[4-((4aR,10bR)-8,9Dimethoxy-1,2,3,4,a,10b-hexahydrophenanthridin-6-yl}-phenyl]ethanone O-phenyloxime] | 8.26 |
| COc1cc2c(cc1OC)[C@H]1CCCC[C@H]1N=C2c1ccc(C(C)=NOCC(C)C)cc1 [Compound 8, 1-[4-((4aR,10bR)-8,9-Dimethoxy-1,2,3,4,4a,10b-hexahydrophenanthridin-6yl)-phenyl]-ethanone O-isobutyloxime] | 8.01 |
| COc1ccccc1NC(=O)CON=C(C)c1ccc(C2=N[C@@H]3CCCC[C@@H]3c3cc(OC)c(OC)cc32)cc1 [Compound 11, 2-{1-[4-((4aR,10bR)-8,9-Dimethoxy-1,2,3,4,4a,10b-hexahydrophenanthridin-6-yl)-phenyl]ethylideneaminooxy}-N-(2-methoxyphenyl)-acetamide] | 8.87 |
| COc1cc2c(cc1OC)C1CCCCC1N=C2c1ccc(C(C)=NOCC(=O)NCc2ccc(Cl)cc2)cc1 [Compound 12, N-(4-Chlorobenzyl)-2-{1-[4-((4aR,10bR)-8,9-dimethoxy-1,2,3,4,a,10b-hexahydrophenanthridin-6-yl)-phenyl]-ethylideneaminooxy}-acetamide] | 8.48 |
| COc1cc2c(cc1OC)C1CCCCC1N=C2c1ccc(C(C)=NOCc2cccc(Cl)c2)cc1 (centres unmarked) [Compound 13] | 8.41 |
| COc1cc2c(cc1OC)[C@H]1CCCC[C@H]1N=C2c1ccc(C(C)=NOCc2cccc(C(F)(F)F)c2)cc1 [Compound 14, 1-[4-((4aR,10bR)-8,9-Dimethoxy-1,2,3,4,4a,10b-hexahydrophenanthridin-6-yl}-phenyl]-ethanone O-(3-trifluoromethylbenzyl)-oxime] | 8.43 |
| COc1ccccc1CON=C(C)c1ccc(C2=N[C@@H]3CCCC[C@@H]3c3cc(OC)c(OC)cc32)cc1 [Compound 15, 1-[4-((4aR,10bR)-8,9-Dimethoxy-1,2,3,4,4a,10b-hexahydrophenanthridin-6-yl}-phenyl]-ethanone O-(2-methoxy-benzyl)-oxime] | 8.33 |
| COc1cc2c(cc1OC)[C@H]1CCCC[C@H]1N=C2c1ccc(C(C)=NOCc2ccc(F)cc2)cc1 [Compound 16, 1-[4-((4aR,10bR)-8,9-Dimethoxy1,2,3,4,4a,10b-hexahydrophenanthridin-6-yl}-phenyl]-ethanone O-(4-flurobenzyl)-oxime] | 8.36 |
| COc1cc2c(cc1OC)[C@H]1CCCC[C@H]1N=C2c1ccc(C(C)=NOCc2cccc(F)c2)cc1 [Compound 17] | 8.47 |
| COc1cc2c(cc1OC)[C@H]1CCCC[C@H]1N=C2c1ccc(C(C)=NOCc2ccccc2Cl)cc1 [Compound 18, 1-[4-((4aR,10bR)-8,9-Dimethoxy-1,2,3,4,4a,10b-hexahydrophenanthridin-6-yl}-phenyl]-ethanone O-(2-chlorobenzyl)-oxime] | 8.73 |
| COc1cc2c(cc1OC)[C@H]1CCCC[C@H]1N=C2c1ccc(C(C)=NOCCOc2ccccc2)cc1 [Compound 19, 1-[4-((4aR,10bR)-8,9-Dimethoxy-1,2,3,4,4a,10b-hexahydrophenanthridin-6-yl)-phenyl]-ethanone O-(2-phenoxyethyl)-oxime] | 8.73 |
| COc1cc2c(cc1OC)[C@H]1CCCC[C@H]1N=C2c1ccc(C(C)=NOCCOc2cccc(C(F)(F)F)c2)cc1 [Compound 20, 1-[4-((4aR,10bR)-8,9-Dimethoxy-1,2,3,4,4a,10b-hexahydrophenanthridin-6-yl}-phenyl]-ethanone O-[2-(3-trifluoromethylphenoxy)-ethyl]-oxime] | 8.00 |
| COc1cc2c(cc1OC)[C@H]1CCCC[C@H]1N=C2c1ccc(C(C)=NOCc2ccc(Cl)cc2)cc1 [Compound 22, 1-[4-((4aR,10bR)-8,9-Dimethoxy-1,2,3,4,4a,10b-hexahydrophenanthridin-6-yl)-phenyl]-ethanone O-(4-chlorobenzyl)-oxime] | 8.62 |
| COc1ccc(CON=C(C)c2ccc(C3=NC4CCCCC4c4cc(OC)c(OC)cc43)cc2)cc1 [Compound 23, 1-[4-((4aR,10bR)-8,9-Dimethoxy-1,2,3,4,4a,10b-hexahydrophenanthridin-6}-phenyl]-ethanone O-(4-methoxybenzyl)-oxime] | 8.75 |
| COc1cc2c(cc1OC)[C@H]1CCCC[C@H]1N=C2c1ccc(C(C)=NOCC(=O)N2CCOCC2)cc1 [Compound 24, 2-{1-[4-((4aR,10bR)-8,9-Dimethoxy-1,2,3,4,4a,10b-hexahydrophenanthridin-6-yl)-phenyl]-ethylideneaminooxy}-1-morpholin-4-yl-ethanone] | 8.25 |
| COc1cc2c(cc1OC)C1CCCCC1N=C2c1cccc(C(C)=NO)c1 (centres unmarked) [Compound 25] | 8.33 |
| COc1cc2c(cc1OC)[C@H]1CCCC[C@H]1N=C2c1cccc(C(=NO)c2ccccc2)c1 [Compound 26, 1-[3-((4aR,10bR)-8,9-Dimethoxy-1,2,3,4,4a,10b-hexahydrophenanthridin-6-yl}-phenyl]-1-phenyl-methanone oxime] | 9.27 |

tested on: not given; experiment: not given; details: not given

| SMILES | melting point |
| --- | --- |
| COc1cc2c(cc1OC)[C@H]1CCCC[C@H]1N=C2c1ccc(C(C)=NO)cc1 [Compound 1, 1-[4-((4aR,10bR)-8,9-Dimethoxy-1,2,3,4,4a,10b-hexahydrophenanthridin-6-yl}-phenyl]-ethanone oxime] | 189 to 192 °C |
